Results taken from article PMC7795089, “Antimalarials and Phytotoxins from Botryosphaeria dothidea Identified from a Seed of Diseased Torreya taxifolia” (Molecules, 2020).
Where two headings read alike, the source gives them in different places.

What was measured:
[1] = system: Plasmodium falciparum D6 (chloroquine-sensitive) strain; assay: In vitro antiplasmodial assay, chloroquine-sensitive (D6) clone; format: cell-based; conditions: for IC50: Plasmodium falciparum
[2] = system: Plasmodium falciparum W2 (chloroquine-resistant) strain; assay: microbe, parasite or virus in culture; format: cell-based; conditions: for IC50: Plasmodium falciparum
[3] = In vitro cytotoxicity assay (neutral red), Vero cells; format: cell-based; conditions: African green monkey, Vero cells (kidney fibroblasts)
Experimental: (§1) Cells were seeded to the wells of a 96-well plate at a density of 25,000 cells/well and incubated for 24 h. Samples at different concentrations were added and plates were again incubated for 48 h. The number of viable cells was determined by using neutral red dye and IC50 values were obtained from dose response curves. Doxorubicin was used as a positive control.

Plasmodium = system: Plasmodium; set-up: method as in PMID 32043422; conditions: cited from earlier work
[4] = In vitro cytotoxicity assay (neutral red), SK-MEL; format: cell-based; conditions: human, SK-MEL cells (malignant melanoma), 48 h incubation, read-out: Cytotoxic activity IC50, SK-MEL
Experimental: as §1

[5] = In vitro cytotoxicity assay (neutral red), KB; format: cell-based; conditions: human, KB cells (oral epidermal carcinoma), 48 h incubation, read-out: Cytotoxic activity IC50, KB
Experimental: as §1

[6] = In vitro cytotoxicity assay (neutral red), BT-549; format: cell-based; conditions: human, BT-549 cells (breast ductal carcinoma), 48 h incubation, read-out: Cytotoxic activity IC50, BT-549
Experimental: as §1

[7] = In vitro cytotoxicity assay (neutral red), SK-OV-3; format: cell-based; conditions: human, SK-OV-3 cells (ovarian carcinoma), 48 h incubation, read-out: Cytotoxic activity IC50, SK-OV-3
Experimental: as §1

[8] = In vitro cytotoxicity assay (neutral red), LLC-PK11; format: cell-based; conditions: pig, 48 h incubation, read-out: Cytotoxic activity IC50, LLC-PK11
Experimental: as §1

Bacillus subtilis = system: Bacillus subtilis; set-up: method as in PMID 30935798; conditions: enantiomers and racemate of compound 2; cited from earlier work
[9] = system: human leukemia HL-60 cells; set-up: method as in PMID 30935798; conditions: enantiomers and racemate of compound 2; comparable to positive control irinotecan; cited from earlier work
[10] = D6, read-out: Chloroquine-Sensitive (D6)-Clone IC50
[11] = W2, read-out: Chloroquine-Resistant (W2)-Clone IC50

With C\C=C(/C=C(C)/C=C/CC/C=C(\C)C(=O)C1=CC(C)(OC)NC1=O)C(=O)OC (stereo not shown) [Compound 3, dothilactaene A] the “Chloroquine-Sensitive (D6)-Clone IC50” value ([1]; P. falciparum D6, concentration causing 50% growth inhibition, highest concentration tested […]) was “inactive”, the IC50 [1, 10] was greater than 4.76 µg/mL and the “Chloroquine-Resistant (W2)-Clone IC50” value ([2]; P. falciparum W2, concentration causing 50% growth inhibition, highest concentration tested […]) was “inactive”. It also gave an IC50 [2, 11] greater than 4.76 µg/mL and an IC50 at 48 h [3] greater than 4.76 µg/mL.

For C\C=C(/C=C(C)/C=C/C=C/C=C(\C)C(=O)[C@H]1C(=O)N[C@]2(O)CCO[C@H]12)C(=O)OC [lucilactaene], the antiplasmodial activity (Plasmodium) is listed as “potent antiplasmodial activity”.

With CCN(CC)CCCC(C)Nc1ccnc2cc(Cl)ccc12 (stereo not shown) [Chloroquine] the IC50 [1, 10] was 0.016 µg/mL, the IC50 ([1]; D6, read-out: Chloroquine-Sensitive (D6)-Clone IC50 (µM, in parentheses)) was 0.03 µM and the IC50 [2, 11] was 0.16 µg/mL. It also gave an IC50 ([2]; W2, read-out: Chloroquine-Resistant (W2)-Clone IC50 (µM, in parentheses)) of 0.31 µM and an IC50 at 48 h [3] greater than 4.76 µg/mL.

For COc1cccc2c1C(=O)c1c(O)c3c(c(O)c1C2=O)C[C@@](O)(C(=O)CO)C[C@@H]3O[C@H]1C[C@H](N)[C@H](O)[C@H](C)O1 [Doxorubicin], the IC50 at 48 h [4] was 1290 nM, the IC50 at 48 h [5] was 2120 nM and the IC50 at 48 h [6] was 1830 nM. It also gave an IC50 at 48 h [7] of 1470 nM and an IC50 at 48 h [8] of 1280 nM.

In the case of CC1=CC(=O)C2(OC2C(=O)CC(C)C)C(=O)N1 (stereo not shown) [Compound 2, flavipucine], the “antibacterial activity against Bacillus subtilis” value (Bacillus subtilis) is listed as “moderate antibacterial activity” and the “cytotoxic activity against human leukemia HL-60 cells” value [9] is listed as “strong cytotoxic activity”.

In the case of C[C@@H]1CC[C@H]2[C@@H](C)C(=O)O[C@@H]3O[C@@]4(C)CC[C@@H]1[C@]32OO4 [Artemisinin], the IC50 at 48 h [3] is reported as greater than 4.76 µg/mL.
